Data on 6 molecules can be found in paper PMC11767451, “Novel Approaches to Monitor Pharmacokinetics and Metabolism of Gemcitabine-Ibandronate Conjugate in Mice and Dogs” (Molecules, 2025).

Data set [1] is described as follows: Autosampler stability of extracted dog plasma samples at 4 °C. The data set is classed as physicochemical. As to the method: The stability of extracted dog and mouse plasma samples in the autosampler at 4 °C was established for 24 and 48 h. Except for GEM-IB, in mouse and dog plasma extracts, all analytes were within ±20% of the nominal enriched concentration for up to 48 h in the autosampler. GEM-IB was stable for up to 24 h under these conditions.
(§1) Method development and validation was conducted following applicable FDA guidelines for bioanalytical assays, as considered fit for purpose. Specificity. Endogenous interferences were excluded by analysis of blank plasma from 6 different individual lots of plasma. The lower limit of quantification (LLOQ) was determined as the lowest concentration consistently achieving an accuracy better than ±20% of the nominal concentration, with imprecision ≤20%. Predefined acceptance criteria. The performance of the assay was considered acceptable if intra- and inter-day imprecision (coefficient of variance, %CV) at each concentration was ≤15%, except at the LLOQ (≤20%). Intra- and inter-day accuracy had to be ±15% of the nominal value, except at the LLOQ (±20%). Calibration curves had to have a correlation coefficient (r) of 0.99 or better. Analytical recovery and imprecision. Intra- and inter-day analytical accuracy and imprecision were tested at least at four concentration levels depending on the LLOQ for each compound. Intra-day imprecision and accuracy were determined with n = 6 per QC level. Inter-day imprecision and accuracy were measured over 3 days, with six replicates for each QC concentration (n = 18). Extraction efficiency and matrix effect. Extraction efficiency for GEM-IB and metabolites was established by comparing the signals of the analytes after the extraction of QCs (n = 6/concentrations), with the signals of the extracted blank matrix spiked with the respective concentrations of analytes after the extraction procedure. The matrix effect was determined by comparing the analyte LC-MS/MS signal after spiking of the analyte into the extracted blank matrix (matrix from 6 different individual lots, analyte concentrations as for the QC samples) with the HPLC-MS/MS signal of the same amount of analyte in neat solution [25]. Carry-over. Carry-over was assessed by injecting blank buffer samples after analysis of the highest calibrators. Carry-over was considered insignificant if there was no signal at the relevant retention times exceeding 20% of the analyte signals at the LLOQ. Stability. QC samples were freshly prepared. One set was extracted and was analyzed immediately to determine baseline signals. Analyte stability in plasma was evaluated at two QC concentration levels (n = 3/concentration level) under different conditions: 1, 2, and 24 h at room temperature and at 4 °C. In addition, stability after extraction was determined after 24 h and 48 h at 4 °C in the autosampler and for up to 3 freeze (−70 °C)–thaw (ambient) cycles. Stability was assessed by comparing analyte concentrations with baseline (t0) concentrations. Stability was assumed when the results were within ±20% of the baseline concentrations. Long-term stability estimates were performed by re-extraction of samples used during the PK study (n = 6). Samples were initially analyzed for the PK assessment and were stored for 1.5 years (GEM-IB and IB) and 2.5 years (GEM, GEMMP, dFdU, and dFdU-MP) at <−70 °C prior to reanalysis. Stability was assessed by comparing analyte concentrations with the initial assessments. Stability was acceptable when the results were within ±20% of the baseline concentrations and the percent standard deviation (%-SD) was below 25%.

The nature of data set [2]: Stability in dog plasma (accelerated, freeze-thaw, frozen PK samples). The data set is classed as in vitro ADME. To be noted: for %-ACC, frozen PK sample stability: dog plasma PK samples re-extracted after 1.5 years at <−70 °C; for %-ACC (% accuracy vs nominal): 3 freeze-thaw cycles (<−70 °C / bench). The method, then:
For stability testing, QC samples were prepared by spiking plasma with QC stock solutions. These stability samples were stored for the predetermined time periods before extraction (accelerated stability and freeze–thaw stability) or after extraction (autosampler stability) and were run with freshly prepared calibrator standards. For accelerated stability, samples were stored at 4 °C and at room temperature for 4 h and 24 h prior to sample extraction. […] Assay A compounds (GEM-IB and IB) were also tested at 1 h and 2 h exposed to 4 °C and at room temperature to evaluate for which duration GEM-IB is stable.
Freeze–thaw cycle stability was assessed by storing the stability samples overnight in the freezer (<−70 °C) and thawing them the next day on the bench. Once thawed, samples were placed back into the freezer. This was carried out for three freeze–thaw cycles for all compounds.
To assess the stability of study samples, PK samples were re-extracted after storage at <−70 °C for 1.5 years (see Supplementary Table S4).
as §1, with “signals.” for “signals. Analyte stability in plasma was evaluated at two QC concentration levels (n = 3/concentration level) under different conditions: 1, 2, and 24 h at room temperature and at 4 °C. In addition, stability after extraction was determined after 24 h and 48 h at 4 °C in the autosampler and for up to 3 freeze (−70 °C)–thaw (ambient) cycles. Stability was assessed by comparing analyte concentrations with baseline (t0) concentrations. Stability was assumed when the results were within ±20% of the baseline concentrations. Long-term stability estimates were performed by re-extraction of samples used during the PK study (n = 6). Samples were initially analyzed for the PK assessment and were stored for 1.5 years (GEM-IB and IB) and 2.5 years (GEM, GEMMP, dFdU, and dFdU-MP) at <−70 °C prior to reanalysis. Stability was assessed by comparing analyte concentrations with the initial assessments. Stability was acceptable when the results were within ±20% of the baseline concentrations and the percent standard deviation (%-SD) was below 25%.”

Where [3] appears, read: dog plasma, 2 hours 4°C (IB and GEM-IB, footnote).
Where [4] appears, read: dog plasma, 2 hours RT (IB and GEM-IB, footnote).

For `Nc1ccn([C@@H]2O[C@H](CO)[C@@H](O)C2(F)F)c(=O)n1` [GEM, gemcitabine], the “%-ACC (% accuracy vs nominal)” value in data set [1] (24 hours autosampler 4 °C) worked out at 100.7%; in data set [1] (48 hours autosampler 4 °C) it was 106.8%; in data set [2] (dog plasma), 103.4%. For the same molecule, the “%-ACC, frozen PK sample stability” value in data set [2] is 90.4% ± 23.9. Further, the “%-ACC (percent mean accuracy vs nominal)” value in data set [2] (dog plasma, 4 hours 4°C) was found to be 102.7%; in data set [2] (dog plasma, 4 hours RT), 101.7%; in data set [2] (dog plasma, 24 hours 4°C) it was 94.8%; in data set [2] (dog plasma, 24 hours RT), 95.4%.

Consider `O=c1ccn([C@@H]2O[C@H](CO)[C@@H](O)C2(F)F)c(=O)[nH]1` [dFdU, 2′,2′-difluoro-2′-deoxyuridine], for which the “%-ACC (% accuracy vs nominal)” value in data set [1] (24 hours autosampler 4 °C) worked out at 99.0%; in data set [1] (48 hours autosampler 4 °C), 102.0%; in data set [2] (dog plasma), 109.5%. Also, the “%-ACC, frozen PK sample stability” value in data set [2] is on record as “failed the criteria”. The “%-ACC (percent mean accuracy vs nominal)” value in data set [2] (dog plasma, 4 hours 4°C) is 100.5%; in data set [2] (dog plasma, 4 hours RT) it was 101.3%; in data set [2] (dog plasma, 24 hours 4°C), 105.3%; in data set [2] (dog plasma, 24 hours RT), 98.4%.

Consider `O=c1ccn([C@@H]2O[C@H](COP(=O)(O)O)[C@@H](O)C2(F)F)c(=O)[nH]1` [dFdUMP, 2′,2′-difluoro-2′-deoxyuridine-5′-phosphate], for which the “%-ACC (% accuracy vs nominal)” value was 92.6% in data set [1] (24 hours autosampler 4 °C), 84.8% in data set [1] (48 hours autosampler 4 °C) and 87.7% in data set [2] (dog plasma). For the same molecule, the “%-ACC, frozen PK sample stability” value in data set [2] was “failed the criteria”. Further, the “%-ACC (percent mean accuracy vs nominal)” value in data set [2] (dog plasma, 4 hours 4°C) amounted to 84.2%; in data set [2] (dog plasma, 4 hours RT) it was 86.7%; in data set [2] (dog plasma, 24 hours 4°C), 85.2%; in data set [2] (dog plasma, 24 hours RT) it was 80.5%.

Consider `CCCCCN(C)CCC(O)(P(=O)(O)O)P(=O)(O)O` [IB, ibandronate], for which the “%-ACC (% accuracy vs nominal)” value is reported as 111.2% in data set [1] (24 hours autosampler 4 °C), 107.7% in data set [1] (48 hours autosampler 4 °C) and 106.5% in data set [2] (dog plasma). Moreover, the “%-ACC (percent mean accuracy vs nominal)” value in data set [2] (setting [3]) was found to be 99.3%; in data set [2] (setting [4]), 101.0%; in data set [2] (dog plasma, 24 hours 4°C) it was 108.8%; in data set [2] (dog plasma, 24 hours RT), 118.5%. For the same molecule, in data set [2] (dog plasma, up to 24 h at 4 °C / on ice and room temperature), the “accelerated stability, result in words” value is recorded as “stable”.

On to `Nc1ccn([C@@H]2O[C@H](COP(=O)(O)O)[C@@H](O)C2(F)F)c(=O)n1` [GEMMP, gemcitabine-5′-phosphate], for which the “%-ACC (% accuracy vs nominal)” value in data set [1] (24 hours autosampler 4 °C) is 92.4%; in data set [1] (48 hours autosampler 4 °C), 90.0%; in data set [2] (dog plasma) it was 92.4%. Further, the “%-ACC, frozen PK sample stability” value in data set [2] was “failed the criteria”. Moreover, the “%-ACC (percent mean accuracy vs nominal)” value in data set [2] (dog plasma, 4 hours 4°C) amounted to 89.5%; in data set [2] (dog plasma, 4 hours RT) it was 98.2%; in data set [2] (dog plasma, 24 hours 4°C) it was 88.1%; in data set [2] (dog plasma, 24 hours RT), 98.2%.

Regarding `CCCCCN(C)CCC(O)(P(=O)(O)O)P(=O)(O)OP(=O)(O)OC[C@H]1O[C@@H](n2ccc(N)nc2=O)C(F)(F)[C@@H]1O` (stereo partly drawn) [GEM-IB], the figures for the “%-ACC (% accuracy vs nominal)” value in data set [1] (24 hours autosampler 4 °C), in data set [1] (48 hours autosampler 4 °C) and in data set [2] (dog plasma) were 86.2%, 63.4% and 84.7%, respectively. Besides, the “%-ACC (percent mean accuracy vs nominal)” value in data set [2] (setting [3]) was found to be 99.3%; in data set [2] (setting [4]) it was 83.5%; in data set [2] (dog plasma, 24 hours 4°C) it was 83.6%; in data set [2] (dog plasma, 24 hours RT), 13.7%. Further, the “time stable on ice” value in data set [2] (dog plasma, on ice) was “up to 24 h”.
